{
  "source": "paper PMC4898691",
  "about": "“Structure of a Berberine Bridge Enzyme-Like Enzyme with an Active Site Specific to the Plant Family Brassicaceae” (PLoS ONE, 2016)",
  "biological_target": "T1, AtBBE-like 28 (Arabidopsis thaliana, UniProt Q9FI21)",
  "T1 construct": "gene At5g44440; two chains in asymmetric unit",
  "T1 sequence (Q9FI21 28-533)": "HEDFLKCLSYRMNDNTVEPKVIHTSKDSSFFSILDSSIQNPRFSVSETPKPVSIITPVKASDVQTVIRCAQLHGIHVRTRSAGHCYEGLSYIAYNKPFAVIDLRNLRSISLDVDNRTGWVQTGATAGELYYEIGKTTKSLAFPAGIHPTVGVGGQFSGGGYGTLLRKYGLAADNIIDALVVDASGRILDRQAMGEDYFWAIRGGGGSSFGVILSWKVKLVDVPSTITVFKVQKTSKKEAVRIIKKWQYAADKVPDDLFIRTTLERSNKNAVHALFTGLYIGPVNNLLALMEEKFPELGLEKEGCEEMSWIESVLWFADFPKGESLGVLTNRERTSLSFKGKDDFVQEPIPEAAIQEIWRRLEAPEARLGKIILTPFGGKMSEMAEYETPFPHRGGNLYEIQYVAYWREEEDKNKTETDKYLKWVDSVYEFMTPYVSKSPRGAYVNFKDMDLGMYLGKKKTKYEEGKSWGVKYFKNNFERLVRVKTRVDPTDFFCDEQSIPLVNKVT",
  "assay": "X-ray crystallography ([…] A)",
  "assay_type": "binding",
  "conditions": "covalent; mono-covalent, His111 to flavin 8alpha-position; crystals at 277 K, HEPES pH 7.0, Jeffamine ED 2001",
  "data": [
    {"smiles": "Cc1cc2nc3c(=O)[nH]c(=O)nc-3n(C[C@H](O)[C@H](O)[C@H](O)COP(=O)(O)OP(=O)(O)OC[C@H]3O[C@@H](n4cnc5c(N)ncnc54)[C@H](O)[C@@H]3O)c2cc1C", "note": "[FAD]", "values": [
      {"measurement": "X-ray crystallography (1.85 A)", "value": "the covalent linkage established by the conserved GGHD motif was clearly seen in the crystal structure"}
    ]}
  ]
}
